Measured values as given in ChEMBL document CHEMBL1137144, “Synthesis and biological evaluation of novel 4"-alkoxy avermectin derivatives” (2004).
In brackets after ≈: the same amount, converted by molar mass.

Legend:
Caenorhabditis elegans = test: Minimum inhibitory concentration for growth inhibition of Caenorhabditis elegans (free living nematode) in a microplate assay; assay type: functional
Artemia salina = test: Minimum inhibitory concentration for growth inhibition of Artemia salina(brine shrimp) in a microplate assay; assay type: functional

Row | MIC (Caenorhabditis elegans) [ng/mL] | Compound | MIC (Artemia salina) [ng/mL]
1 | 10 (≈ 10.2 nM) | CCC(C)[C@H]1O[C@]2(C=C[C@@H]1C)C[C@@H]1C[C@@H](C/C=C(\C)C(O[C@H]3C[C@H](OC)C(O[C@H]4C[C@H](OC)[C@@H](OCCBr)[C@H](C)O4)[C@H](C)O3)[C@@H](C)/C=C/C=C3\CO[C@@H]4[C@H](O)C(C)=CC(C(=O)O1)C34O)O2 (stereo not given in full) | 2 (≈ 2.04 nM)
2 | 0.5 (≈ 0.536 nM) | CCC(C)[C@H]1O[C@]2(CC[C@@H]1C)C[C@@H]1C[C@@H](C/C=C(\C)C(O[C@H]3C[C@H](OC)C(O[C@H]4C[C@H](OC)[C@@H](OCC(=O)O)[C@H](C)O4)[C@H](C)O3)[C@@H](C)/C=C/C=C3\CO[C@@H]4[C@H](O)C(C)=CC(C(=O)O1)C34O)O2 (stereo not given in full) | 0.1 (≈ 0.107 nM)
3 | 10 (≈ 12.7 nM) | CCC(C)[C@H]1O[C@]2(C=C[C@@H]1C)C[C@@H]1C[C@@H](C/C=C(\C)[C@@H](O[C@H]3C[C@H](OC)[C@@H](OCC(=O)O)[C@H](C)O3)[C@@H](C)/C=C/C=C3\CO[C@@H]4[C@H](O)C(C)=CC(C(=O)O1)C34O)O2 (stereo not given in full) | 2 (≈ 2.54 nM)
4 | 10 (≈ 12.7 nM) | CCC(C)[C@H]1O[C@]2(CC[C@@H]1C)C[C@@H]1C[C@@H](C/C=C(\C)[C@@H](O[C@H]3C[C@H](OC)[C@@H](OCC(=O)O)[C@H](C)O3)[C@@H](C)/C=C/C=C3\CO[C@@H]4[C@H](O)C(C)=CC(C(=O)O1)C34O)O2 (stereo not given in full) | 10 (≈ 12.7 nM)
5 | 0.1 (≈ 0.107 nM) | CCC(C)[C@H]1O[C@]2(C=C[C@@H]1C)C[C@@H]1C[C@@H](C/C=C(\C)[C@@H](OC3C[C@H](OC)[C@@H](OC4C[C@H](OC)[C@@H](OCC(=O)O)[C@H](C)O4)[C@H](C)O3)[C@@H](C)/C=C/C=C3\CO[C@@H]4[C@H](O)C(C)=C[C@@H](C(=O)O1)[C@]34O)O2 (stereo not given in full) | 0.02 (≈ 0.0215 nM)
6 | 10 (≈ 10.3 nM) | CCOC(=O)CO[C@H]1[C@H](C)O[C@@H](OC2[C@H](C)O[C@@H](OC3/C(C)=C/C[C@@H]4C[C@@H](C[C@]5(CC(=O)[C@H](C)[C@@H](C(C)CC)O5)O4)OC(=O)C4C=C(C)[C@@H](O)[C@H]5OC/C(=C\C=C\[C@@H]3C)C45O)C[C@@H]2OC)C[C@@H]1OC (stereo not given in full) | 2 (≈ 2.05 nM)
7 | 10 (≈ 10.6 nM) | CCC(C)[C@H]1O[C@]2(C=C[C@@H]1C)C[C@@H]1C[C@@H](C/C=C(\C)C(O[C@H]3C[C@H](OC)C(O[C@H]4C[C@H](OC)[C@@H](OCCN=[N+]=[N-])[C@H](C)O4)[C@H](C)O3)[C@@H](C)/C=C/C=C3\CO[C@@H]4[C@H](O)C(C)=CC(C(=O)O1)C34O)O2 (stereo not given in full) | 0.5 (≈ 0.531 nM)
8 | 0.5 (≈ 0.5 nM) | CCC(C)[C@H]1O[C@]2(C=C[C@@H]1C)C[C@@H]1C[C@@H](C/C=C(\C)[C@@H](OC3C[C@H](OC)[C@@H](OC4C[C@H](OC)[C@@H](OCC(=O)N5CCOCC5)[C@H](C)O4)[C@H](C)O3)[C@@H](C)/C=C/C=C3\CO[C@@H]4[C@H](O)C(C)=C[C@@H](C(=O)O1)[C@]34O)O2 (stereo not given in full) | 0.5 (≈ 0.5 nM)
9 | 2 (≈ 1.99 nM) | CCOC(=O)CO[C@H]1[C@H](C)O[C@@H](OC2[C@H](C)O[C@@H](OC3/C(C)=C/C[C@@H]4C[C@@H](C[C@]5(C/C(=N\OC)[C@H](C)[C@@H](C(C)CC)O5)O4)OC(=O)C4C=C(C)[C@@H](O)[C@H]5OC/C(=C\C=C\[C@@H]3C)C45O)C[C@@H]2OC)C[C@@H]1OC (stereo not given in full) | 2 (≈ 1.99 nM)
10 | 50 (≈ 50.7 nM) | CCC(C)[C@H]1O[C@]2(C=C[C@@H]1C)C[C@@H]1C[C@@H](C/C=C(\C)C(O[C@H]3C[C@H](OC)C(O[C@H]4C[C@H](OC)[C@@H](OCCN5CCNCC5)[C@H](C)O4)[C@H](C)O3)[C@@H](C)/C=C/C=C3\CO[C@@H]4[C@H](O)C(C)=CC(C(=O)O1)C34O)O2 (stereo not given in full) | 10 (≈ 10.1 nM)
11 | 10 (≈ 10 nM) | CCC(C)[C@H]1O[C@]2(C=C[C@@H]1C)C[C@@H]1C[C@@H](C/C=C(\C)[C@@H](OC3C[C@H](OC)[C@@H](OC4C[C@H](OC)C(OCC(=O)N5CCCCC5)[C@H](C)O4)[C@H](C)O3)[C@@H](C)/C=C/C=C3\CO[C@@H]4[C@H](O)C(C)=C[C@@H](C(=O)O1)[C@]34O)O2 (stereo not given in full) | 10 (≈ 10 nM)
12 | 10 (≈ 10.4 nM) | CCC(C)[C@H]1O[C@]2(C=C[C@@H]1C)C[C@@H]1C[C@@H](C/C=C(\C)C(O[C@H]3C[C@H](OC)C(O[C@H]4C[C@H](OC)[C@@H](OCCNC(C)=O)[C@H](C)O4)[C@H](C)O3)[C@@H](C)/C=C/C=C3\CO[C@@H]4[C@H](O)C(C)=CC(C(=O)O1)C34O)O2 (stereo not given in full) | 10 (≈ 10.4 nM)
13 | 2 (≈ 2.45 nM) | CCOC(=O)CO[C@H]1[C@H](C)O[C@@H](O[C@@H]2/C(C)=C/C[C@@H]3C[C@@H](C[C@]4(C=C[C@H](C)[C@@H](C(C)CC)O4)O3)OC(=O)C3C=C(C)[C@@H](O)[C@H]4OC/C(=C\C=C\[C@@H]2C)C34O)C[C@@H]1OC (stereo not given in full) | 0.5 (≈ 0.613 nM)
14 | 2 (≈ 2.15 nM) | CCC(C)[C@H]1O[C@]2(C=C[C@@H]1C)C[C@@H]1C[C@@H](C/C=C(\C)C(O[C@H]3C[C@H](OC)C(O[C@H]4C[C@H](OC)[C@@H](OC/C=N/O)[C@H](C)O4)[C@H](C)O3)[C@@H](C)/C=C/C=C3\CO[C@@H]4[C@H](O)C(C)=CC(C(=O)O1)C34O)O2 (stereo not given in full) | 2 (≈ 2.15 nM)
15 | 2 (≈ 2.29 nM) | CCC(C)[C@H]1O[C@]2(CC[C@@H]1C)C[C@@H]1C[C@@H](C/C=C(\C)[C@@H](OC3C[C@H](OC)[C@@H](OC4C[C@H](OC)[C@@H](O)[C@H](C)O4)[C@H](C)O3)[C@@H](C)/C=C/C=C3\CO[C@@H]4[C@H](O)C(C)=C[C@@H](C(=O)O1)[C@]34O)O2 (stereo not given in full) | 2 (≈ 2.29 nM)
16 | 10 (≈ 10.9 nM) | CCC(C)[C@H]1O[C@]2(C=C[C@@H]1C)C[C@@H]1C[C@@H](C/C=C(\C)C(O[C@H]3C[C@H](OC)C(O[C@H]4C[C@H](OC)[C@@H](OCCO)[C@H](C)O4)[C@H](C)O3)[C@@H](C)/C=C/C=C3\CO[C@@H]4[C@H](O)C(C)=CC(C(=O)O1)C34O)O2 (stereo not given in full) | 2 (≈ 2.18 nM)
17 | 50 (≈ 50.8 nM) | CCC(C)[C@H]1O[C@]2(C=C[C@@H]1C)C[C@@H]1C[C@@H](C/C=C(\C)C(O[C@H]3C[C@H](OC)C(O[C@H]4C[C@H](OC)[C@@H](OCCN5CCCCC5)[C@H](C)O4)[C@H](C)O3)[C@@H](C)/C=C/C=C3\CO[C@@H]4[C@H](O)C(C)=CC(C(=O)O1)C34O)O2 (stereo not given in full) | 10 (≈ 10.2 nM)
18 | 10 (≈ 10.1 nM) | CCC(C)[C@H]1O[C@]2(C=C[C@@H]1C)C[C@@H]1C[C@@H](C/C=C(\C)C(O[C@H]3C[C@H](OC)C(O[C@H]4C[C@H](OC)[C@@H](OCCN5CCOCC5)[C@H](C)O4)[C@H](C)O3)[C@@H](C)/C=C/C=C3\CO[C@@H]4[C@H](O)C(C)=CC(C(=O)O1)C34O)O2 (stereo not given in full) | 2 (≈ 2.03 nM)
19 | 50 (≈ 54.6 nM) | CCC(C)[C@H]1O[C@]2(C=C[C@@H]1C)C[C@@H]1C[C@@H](C/C=C(\C)C(O[C@H]3C[C@H](OC)C(O[C@H]4C[C@H](OC)[C@@H](OCCN)[C@H](C)O4)[C@H](C)O3)[C@@H](C)/C=C/C=C3\CO[C@@H]4[C@H](O)C(C)=CC(C(=O)O1)C34O)O2 (stereo not given in full) | 10 (≈ 10.9 nM)
20 | 2 (≈ 2.08 nM) | CCOC(=O)CO[C@H]1[C@H](C)O[C@@H](OC2[C@H](C)O[C@@H](OC3/C(C)=C/C[C@@H]4C[C@@H](C[C@]5(CC[C@H](C)[C@@H](C(C)CC)O5)O4)OC(=O)C4C=C(C)[C@@H](O)[C@H]5OC/C(=C\C=C\[C@@H]3C)C45O)C[C@@H]2OC)C[C@@H]1OC (stereo not given in full) | 0.5 (≈ 0.52 nM)
21 | 2 (≈ 2.12 nM) | CCC(C)[C@H]1O[C@]2(C=C[C@@H]1C)C[C@@H]1C[C@@H](C/C=C(\C)C(O[C@H]3C[C@H](OC)C(O[C@H]4C[C@H](OC)[C@@H](OC/C=N/OC)[C@H](C)O4)[C@H](C)O3)[C@@H](C)/C=C/C=C3\CO[C@@H]4[C@H](O)C(C)=CC(C(=O)O1)C34O)O2 (stereo not given in full) | 0.5 (≈ 0.53 nM)
22 | 2 (≈ 2.09 nM) | CCOC(=O)CO[C@H]1[C@H](C)OC(O[C@H]2[C@H](C)O[C@@H](OC3/C(C)=C/C[C@@H]4C[C@@H](C[C@]5(C=C[C@H](C)[C@@H](C(C)CC)O5)O4)OC(=O)[C@@H]4C=C(C)[C@@H](O)[C@H]5OC/C(=C\C=C\[C@@H]3C)[C@]54O)C[C@@H]2OC)C[C@@H]1OC (stereo not given in full) | 0.5 (≈ 0.521 nM)
23 | 2 (≈ 2.45 nM) | CCOC(=O)CO[C@H]1[C@H](C)O[C@@H](O[C@@H]2/C(C)=C/C[C@@H]3C[C@@H](C[C@]4(CC[C@H](C)[C@@H](C(C)CC)O4)O3)OC(=O)C3C=C(C)[C@@H](O)[C@H]4OC/C(=C\C=C\[C@@H]2C)C34O)C[C@@H]1OC (stereo not given in full) | 0.5 (≈ 0.612 nM)
24 | 2 (≈ 2.05 nM) | CCOC(=O)CO[C@H]1[C@H](C)O[C@@H](OC2[C@H](C)O[C@@H](OC3/C(C)=C/C[C@@H]4C[C@@H](C[C@]5(CC(O)[C@H](C)[C@@H](C(C)CC)O5)O4)OC(=O)C4C=C(C)[C@@H](O)[C@H]5OC/C(=C\C=C\[C@@H]3C)C45O)C[C@@H]2OC)C[C@@H]1OC (stereo not given in full) | 0.5 (≈ 0.512 nM)

Row | Compound | MIC (Caenorhabditis elegans) [ng/mL] | MIC (Artemia salina) [ng/mL]
25 | CC[C@H](C)[C@H]1O[C@]2(C=C[C@@H]1C)C[C@@H]1C[C@@H](C/C=C(\C)[C@@H](O[C@H]3C[C@H](OC)[C@@H](O[C@H]4C[C@H](OC)[C@@H](O)[C@H](C)O4)[C@H](C)O3)[C@@H](C)/C=C/C=C3\CO[C@@H]4[C@H](O)C(C)=C[C@@H](C(=O)O1)[C@]34O)O2 [ABAMECTIN COMPONENT B1A] | 2 (≈ 2.29 nM) | 0.5 (≈ 0.573 nM)
